“Also recorded” adds a separate entry of the source.
Tests used:
6-OHDA-lesioned rats = experiment: Potentiation of L-dopa-induced contralateral rotations in unilaterally 6-OHDA-lesioned rats; assay type: in vivo, rat; conditions: 5 mg/kg i.p. with L-dopa 3 mg/kg i.p., turns in 2 h, versus L-dopa alone
Method: Rats (275–300 g) were anesthetized and placed on a David Kopf stereotaxic apparatus (Tujunga, CA, USA) and infused, using a stainless steel cannula, into the left medial forebrain bundle [coordinates A = −2.2, L = +1.5 from bregma, V = −7.9 from the dura, according to the atlas of Pellegrino et al. (1979) [34]] with 6-OHDA (8 μg/4 μL of saline containing 0.05% ascorbic acid). Rats were pretreated with desipramine (10 mg/kg i.p.) to prevent damage to noradrenergic neurons.
Rotational behavior was assessed in hemispherical bowls (50 cm diameter), with sawdust on the floor, in which each rat was connected to an automated rotameter system (Panlab s.l., Barcelona, Spain) capable of detecting the number of full (360°) rotations in both directions (ipsilateral and contralateral to the lesioned hemisphere). Rats were placed in the bowls 30 min before drug administration to acclimatize and extinguish any spontaneous rotational behavior, and both contralateral and homolateral rotations were measured in 10 min blocks for 120 min after drug injection. The total number of contralateral and homolateral rotations (mean ± SEM) in a 2 h testing period were calculated.
Potentiation of L-dopa-induced rotational behavior: two weeks after the unilateral 6-OHDA lesion, rats were screened based on their contralateral rotations in response to L-dopa (50 mg/kg i.p.) + benserazide (30 mg/ kg i.p.). Rats not showing at least 300 contralateral rotations during the 2 h testing period were eliminated from the study. Three days later, rats were administered with a subthreshold dose of L-dopa (3 mg/kg i.p.) + benserazide (6 mg/kg i.p.) in combination with the vehicle or with a dose of 5 mg/kg i.p of 1, 4, or 5. Compounds were administered simultaneously with L-dopa. Benserazide was always injected 30 min before L-dopa.
In the rotational behavior experiments, the mean and S.E.M. of the total number of contralateral rotations were calculated. Significant differences between groups were evaluated by one-way ANOVA followed by a Newman–Keuls post hoc test.

human A2AAR = molecular target: T1, human A2AAR (Homo sapiens, UniProt P29274); experiment: GloSensor cAMP assay in CHO cells expressing human A2AAR; assay type: cell-based; conditions: for cAMP production when tested alone (agonist behavior): A2AAR transfected CHO cells, compound alone, in comparison with NECA; for IC50: CHO cells expressing hA2AARs, GloSensor cAMP assay, mean ± standard error, read-out: IC50, inhibition of NECA-induced cAMP production
T1 construct: expressed in transfected cells; host or cells: CHO cells, crude membrane fractions
Method: The performed GloSensorÏ cAMP assay is a non-radioactive method that offers a simple and powerful approach to monitor G-protein coupled receptor (GPCR) activity through change in the intracellular cAMP concentration.
Cell culture: CHO cells stably expressing human A2AAR were grown adherently and maintained in Dulbecco’s modified Eagle’s medium with nutrient mixture F12 (DMEM/F12 with phenol red), supplemented with 10% fetal bovine serum (FBS), 100 U mL^−1 penicillin, 100 µg mL^−1 streptomycin, 2.5 µg mL^−1 amphotericin, 1 mM sodium pyruvate and 0.1 mg mL^−1 geneticin (G418), at 37 °C and aerated with 5% CO2:95% […]. Cells were grown to approximately 70–80% confluence, and transient transfection with a plasmid encoding the biosensor was performed.
GloSensorÏ cAMP assay: Cells were harvested in CO2-independent medium and were counted in a Neubauer chamber. The desired number of cells was incubated in equilibration medium containing a 3% v/v GloSensor^TM cAMP reagent stock solution, 10% FBS, and 87% CO2 independent medium. After 2 h of incubation, the cells were dispensed in the wells of a 384-well plate and, when a steady-state basal signal was obtained, the NECA referent agonist or the understudy compounds, at different concentrations, were added. […] The antagonist profile was evaluated by assessing their ability to counteract an agonist-induced increase in cAMP accumulation. The cells were incubated in the reaction medium (10 min at room temperature) with different understudy molecule concentrations and then treated with NECA. After 10 min, various luminescence reads were performed at different incubation times.
Statistical analysis: Responses were expressed as a percentage of the maximal relative luminescence units (RLU). Concentration–response curves were fitted by a nonlinear regression with the Prism 4.0 program (GraphPAD Software, San Diego, CA, USA). To quantify the NECA agonist potency, the EC50 value was calculated. The EC50 value is the concentration of agonists required to produce 50% of the maximum effect. To evaluate the antagonist profile, the IC50 values were determined. The IC50 value is the concentration of antagonists that produces a 50% inhibition of the agonist effect. Each concentration was tested three times in triplicate, and the values are given as the mean ± standard error.

[1] = system: catalepsy induced by haloperidol; experiment: Haloperidol-induced catalepsy, vertical grid test; assay type: in vivo, rat; conditions: rats; for Effect on catalepsy induced by haloperidol: 5 mg/kg i.p. given 90 min after haloperidol 0.2 mg/kg s.c., 90 min testing period; for Duration of anticataleptic effect: 5 mg/kg i.p., haloperidol 0.2 mg/kg s.c., time after drug administration
Method: Male Sprague Dawley rats (200–300 g, Charles River, Calco, Italy) were housed in groups of 4–6 in standard polycarbonate cages with sawdust bedding and maintained on a 12 h light/dark cycle (lights on at 8:00 am). Food and water were freely available. All experiments were conducted in accordance with the guidelines for animal experimentation of the EU directives (2010/63/EU; L.276; 22 September 2010) and approved by the Committee on Animal Experimentation (CESA; protocol code 29456, 21 March 2012) of the University of Cagliari. Experiments were designed to minimize animal discomfort and to reduce the number of animals used.
Catalepsy was estimated using the vertical grid test. The test was carried out by placing a rat with the four paws on a wire grid (43–25 cm) at an angle of about 70° in respect to the bench surface. Catalepsy was determined by measuring the time in which the rat maintained a given position. The test was terminated when the rat moved one paw or when 90 s had elapsed from the placement of the rat on the grid. Catalepsy assessments were repeated every 10–15 min intervals. […] A2AAR antagonists were injected 90 min after haloperidol administration to evaluate their effects on deeply cataleptic rats. […]
For catalepsy evaluation, the mean and S.E.M. of the seconds of immobility during each test section were calculated. Significant differences between groups were evaluated by one-way analysis of variance (ANOVA) followed by a Newman–Keuls post hoc test.
After 40 min of haloperidol administration (0.2 mg/kg s.c.), a significant catalepsy was induced in rats, which reached its maximum at 60–70 min [18, 24]. Therefore, the administration of the A2AAR antagonists was made 90 min after haloperidol to evaluate their effects on deeply cataleptic rats.

T1 sequence (P29274 whole entry): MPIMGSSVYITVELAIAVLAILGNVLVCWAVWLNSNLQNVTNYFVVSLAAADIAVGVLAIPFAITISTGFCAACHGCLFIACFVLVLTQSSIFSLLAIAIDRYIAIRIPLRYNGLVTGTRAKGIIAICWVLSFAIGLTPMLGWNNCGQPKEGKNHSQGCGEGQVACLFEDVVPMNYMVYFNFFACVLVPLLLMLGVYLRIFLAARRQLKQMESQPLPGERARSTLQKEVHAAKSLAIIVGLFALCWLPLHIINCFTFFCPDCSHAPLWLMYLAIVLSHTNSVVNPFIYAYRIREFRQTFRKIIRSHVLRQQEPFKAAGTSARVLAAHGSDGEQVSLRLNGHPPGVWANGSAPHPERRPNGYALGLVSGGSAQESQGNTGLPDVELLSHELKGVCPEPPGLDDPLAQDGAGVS

| SMILES | Number of contralateral rotations induced by subthreshold L-dopa (6-OHDA-lesioned rats) | cAMP production when tested alone (agonist behavior) (human A2AAR) | IC50 (human A2AAR) | Efficacy on catalepsy, preliminary studies ([1]; 5 mg/kg) | Effect on catalepsy induced by haloperidol [1] | Duration of anticataleptic effect [1] | Efficacy on catalepsy, preliminary studies ([1]; 1 and 3 mg/kg) |
| --- | --- | --- | --- | --- | --- | --- | --- |
| CCn1c(Br)nc2c(N)nc(OCCc3ccccc3)nc21 [Compound 1, 8-bromo-9-ethyl-2-phenetoxyadenine] | did not increase | not able to stimulate cAMP production; also recorded: no increase in cAMP production was detected | 108 ± 23 nM | fully effective | significantly antagonized catalepsy | 10 to 90 min | low efficacy on catalepsy |
| CCOc1nc2c(N)nc(OCCc3ccccc3)nc2n1CC [Compound 4, 8-ethoxy-9-ethyl-2-phenethoxyadenine] | significantly increased | not able to stimulate cAMP production; also recorded: no increase in cAMP production was detected | 278 ± 49 nM | fully effective | significantly antagonized catalepsy; also recorded: longer duration and a strong intensity | 10 to 90 min | low efficacy on catalepsy |
| CCn1c(I)nc2c(N)nc(OCCc3ccccc3)nc21 [Compound 5, 9-ethyl-8-iodo-2-phenethoxy-9H-purin-6-amine] | significantly increased | not able to stimulate cAMP production; also recorded: no increase in cAMP production was detected | 114 ± 25 nM | fully effective | significantly antagonized catalepsy | ≤ 60 min | low efficacy on catalepsy |

From paper PMC11898488, “A2A Adenosine Receptor Antagonists and Their Efficacy in Rat Models of Parkinson’s Disease” (Cells, 2025)
